The source of these data is the Kinase Knowledgebase extract (Sharma et al. 2016).

“And” between values parts separate entries of the source, which are not always exact repeats. Identical values can stand only once.

Assay [1] addresses EGFR (human) (UniProt P00533).
Assay [2] deals with MAPK14 (human) (UniProt Q16539). The experiment in a line: Inhibition of Doubly Phosphorylated MAPK14 Kinase Activity (Biochemical Assay).
The target in assay [3] is EGFR (human) (UniProt P00533). The settings on record: a431.
The test system of assay [4] is ERBB2;PIK3CA (human), P42336 [Assessment of Cell Proliferation in MCF7.1 Cells Expressed by ERBB2/ PI3K(E545K)]. As to the kind of experiment: Assessment of Cell Proliferation in MCF7.1 Cells Expressed by ERBB2/ PI3K(E545K).
Assay [5] addresses PIK3CB (Human) (UniProt P42338). As to the kind of experiment: Assessment of PIK3CB Kinase Activity.
Assay [6] has as its target PIK3CD (Human) (UniProt O00329). The experiment in a line: Assessment of PIK3CD Kinase Activity.
The target of assay [7] is PIK3CA (human) (UniProt P42336). As to the kind of experiment: Inhibition of PIK3CA Kinase Activity.
Assay [8] addresses PIK3CG (human) (UniProt P48736). As to the kind of experiment: Assessment of PIK3CG Kinase Activity.
The target in assay [9] is PIK3CA (human) (UniProt P42336). The experiment in a line: Assessment of PIK3CA Kinase Activity.
The target of assay [10] is PIK3CD (Human) (UniProt O00329). As to the kind of experiment: Inhibition of PIK3CD Kinase Activity.
The target in assay [11] is PIK3CB;PIK3CG;PIK3CD;PIK3CA (human) (UniProt P48736). As to the kind of experiment: Inhibition of PIK3CA/PIK3CB/PIK3CD/PIK3CG Kinase Activity.
In assay [12] the target is CDK2 (human) (UniProt P24941). As to the kind of experiment: Enzyme Assay.
Assay [13] addresses EGFR (human) (UniProt P00533). The source holds these as a separate data set.
The target in assay [14] is PIK3CG (human) (UniProt P48736). As to the kind of experiment: Enzyme Assay.

Chain of MAPK14 (human) (Q16539 whole entry, looked up): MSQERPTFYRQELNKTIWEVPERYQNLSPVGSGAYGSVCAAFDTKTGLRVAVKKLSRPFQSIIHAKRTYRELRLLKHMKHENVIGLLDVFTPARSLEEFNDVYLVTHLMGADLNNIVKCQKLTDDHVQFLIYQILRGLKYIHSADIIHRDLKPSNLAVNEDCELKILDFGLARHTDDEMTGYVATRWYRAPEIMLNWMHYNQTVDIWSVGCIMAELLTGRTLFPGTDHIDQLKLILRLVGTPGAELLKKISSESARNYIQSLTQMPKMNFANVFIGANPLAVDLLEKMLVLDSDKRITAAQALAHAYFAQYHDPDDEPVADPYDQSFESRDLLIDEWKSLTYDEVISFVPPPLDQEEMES
Chain of PIK3CD (Human) (O00329 whole entry, looked up): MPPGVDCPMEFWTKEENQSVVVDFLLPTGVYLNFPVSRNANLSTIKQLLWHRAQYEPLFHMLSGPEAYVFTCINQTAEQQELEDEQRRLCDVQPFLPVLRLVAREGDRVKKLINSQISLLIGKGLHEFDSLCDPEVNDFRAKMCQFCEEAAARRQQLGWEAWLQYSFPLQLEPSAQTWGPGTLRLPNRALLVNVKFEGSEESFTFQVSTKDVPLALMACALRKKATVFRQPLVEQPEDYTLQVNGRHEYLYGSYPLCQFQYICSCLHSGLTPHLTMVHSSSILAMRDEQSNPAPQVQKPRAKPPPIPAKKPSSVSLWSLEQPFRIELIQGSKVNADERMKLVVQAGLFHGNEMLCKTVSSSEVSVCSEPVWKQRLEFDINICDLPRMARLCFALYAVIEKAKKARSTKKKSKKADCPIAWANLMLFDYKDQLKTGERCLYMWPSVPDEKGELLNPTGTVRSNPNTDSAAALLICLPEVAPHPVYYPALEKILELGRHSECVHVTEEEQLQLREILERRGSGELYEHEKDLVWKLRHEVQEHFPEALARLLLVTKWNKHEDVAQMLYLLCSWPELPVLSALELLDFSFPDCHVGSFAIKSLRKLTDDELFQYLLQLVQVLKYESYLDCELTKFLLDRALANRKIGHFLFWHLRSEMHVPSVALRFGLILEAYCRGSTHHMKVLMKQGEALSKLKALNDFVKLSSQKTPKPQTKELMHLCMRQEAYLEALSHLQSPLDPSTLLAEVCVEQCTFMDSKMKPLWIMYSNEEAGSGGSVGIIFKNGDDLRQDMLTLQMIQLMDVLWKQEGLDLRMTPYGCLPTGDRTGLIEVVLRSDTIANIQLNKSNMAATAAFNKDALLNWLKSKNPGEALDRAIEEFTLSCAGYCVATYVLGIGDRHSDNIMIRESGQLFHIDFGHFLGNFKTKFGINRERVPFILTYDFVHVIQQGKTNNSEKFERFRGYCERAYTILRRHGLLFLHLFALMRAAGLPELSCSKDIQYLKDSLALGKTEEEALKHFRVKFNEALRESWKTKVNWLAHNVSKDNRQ
Chain of EGFR (human) (P00533 whole entry, looked up): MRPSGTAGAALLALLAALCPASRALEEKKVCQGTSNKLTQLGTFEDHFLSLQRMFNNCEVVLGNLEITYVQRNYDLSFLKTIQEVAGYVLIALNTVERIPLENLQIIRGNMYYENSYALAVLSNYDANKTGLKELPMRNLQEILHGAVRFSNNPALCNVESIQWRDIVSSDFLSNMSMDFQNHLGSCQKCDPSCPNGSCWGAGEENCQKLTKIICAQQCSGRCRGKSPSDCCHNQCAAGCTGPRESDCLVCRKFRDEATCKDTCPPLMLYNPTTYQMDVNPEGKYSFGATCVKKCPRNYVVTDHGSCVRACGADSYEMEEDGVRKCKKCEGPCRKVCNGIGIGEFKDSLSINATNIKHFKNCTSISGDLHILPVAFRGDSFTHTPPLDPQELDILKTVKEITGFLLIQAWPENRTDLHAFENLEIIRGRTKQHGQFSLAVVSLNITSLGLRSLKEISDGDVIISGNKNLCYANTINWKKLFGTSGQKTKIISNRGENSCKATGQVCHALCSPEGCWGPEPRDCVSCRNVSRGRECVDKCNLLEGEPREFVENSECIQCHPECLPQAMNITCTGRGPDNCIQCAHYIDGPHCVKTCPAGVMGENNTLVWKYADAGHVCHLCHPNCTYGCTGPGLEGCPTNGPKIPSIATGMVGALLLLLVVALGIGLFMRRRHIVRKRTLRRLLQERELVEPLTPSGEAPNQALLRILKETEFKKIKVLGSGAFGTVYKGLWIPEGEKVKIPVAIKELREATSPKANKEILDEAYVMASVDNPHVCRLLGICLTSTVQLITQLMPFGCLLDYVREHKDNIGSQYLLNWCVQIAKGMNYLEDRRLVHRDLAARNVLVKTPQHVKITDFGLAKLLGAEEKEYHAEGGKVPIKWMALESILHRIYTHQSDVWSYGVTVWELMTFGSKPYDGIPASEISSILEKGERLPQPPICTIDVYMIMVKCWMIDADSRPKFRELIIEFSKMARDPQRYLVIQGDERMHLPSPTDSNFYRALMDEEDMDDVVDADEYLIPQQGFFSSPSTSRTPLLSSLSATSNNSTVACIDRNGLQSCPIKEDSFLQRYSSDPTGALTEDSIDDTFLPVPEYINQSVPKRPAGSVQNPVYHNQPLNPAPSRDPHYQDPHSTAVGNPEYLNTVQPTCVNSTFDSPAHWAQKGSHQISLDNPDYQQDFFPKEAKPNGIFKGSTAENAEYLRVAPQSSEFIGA
Chain of PIK3CB (Human) (P42338 whole entry, looked up): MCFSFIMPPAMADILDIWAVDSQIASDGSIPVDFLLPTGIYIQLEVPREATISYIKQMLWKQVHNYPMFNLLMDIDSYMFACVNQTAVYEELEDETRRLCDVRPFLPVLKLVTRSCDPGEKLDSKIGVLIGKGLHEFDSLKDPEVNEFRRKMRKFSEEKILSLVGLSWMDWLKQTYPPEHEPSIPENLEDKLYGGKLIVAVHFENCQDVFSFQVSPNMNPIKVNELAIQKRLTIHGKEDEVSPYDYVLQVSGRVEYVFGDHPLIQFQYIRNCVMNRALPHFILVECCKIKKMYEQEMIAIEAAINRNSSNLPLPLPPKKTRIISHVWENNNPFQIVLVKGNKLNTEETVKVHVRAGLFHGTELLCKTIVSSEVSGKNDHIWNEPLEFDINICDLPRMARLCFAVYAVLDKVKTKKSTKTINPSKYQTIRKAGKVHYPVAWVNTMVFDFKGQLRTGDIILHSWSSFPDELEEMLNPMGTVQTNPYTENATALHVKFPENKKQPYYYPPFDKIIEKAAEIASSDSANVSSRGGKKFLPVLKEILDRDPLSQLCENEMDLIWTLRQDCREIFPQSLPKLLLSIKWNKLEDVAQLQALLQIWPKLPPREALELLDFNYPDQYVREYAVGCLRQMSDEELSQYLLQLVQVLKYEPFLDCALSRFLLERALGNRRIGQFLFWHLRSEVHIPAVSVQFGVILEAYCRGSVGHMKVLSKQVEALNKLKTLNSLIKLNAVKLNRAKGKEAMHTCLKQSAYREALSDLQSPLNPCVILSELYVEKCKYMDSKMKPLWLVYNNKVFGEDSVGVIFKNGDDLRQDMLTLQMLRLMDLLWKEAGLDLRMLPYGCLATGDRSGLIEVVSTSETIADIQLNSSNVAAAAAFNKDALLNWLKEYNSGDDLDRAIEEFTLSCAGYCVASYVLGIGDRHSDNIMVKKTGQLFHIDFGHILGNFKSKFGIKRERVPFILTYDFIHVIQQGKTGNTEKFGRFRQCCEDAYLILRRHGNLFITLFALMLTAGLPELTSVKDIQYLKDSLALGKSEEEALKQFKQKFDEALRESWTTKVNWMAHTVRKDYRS
Chain of PIK3CA (human) (P42336 whole entry, looked up): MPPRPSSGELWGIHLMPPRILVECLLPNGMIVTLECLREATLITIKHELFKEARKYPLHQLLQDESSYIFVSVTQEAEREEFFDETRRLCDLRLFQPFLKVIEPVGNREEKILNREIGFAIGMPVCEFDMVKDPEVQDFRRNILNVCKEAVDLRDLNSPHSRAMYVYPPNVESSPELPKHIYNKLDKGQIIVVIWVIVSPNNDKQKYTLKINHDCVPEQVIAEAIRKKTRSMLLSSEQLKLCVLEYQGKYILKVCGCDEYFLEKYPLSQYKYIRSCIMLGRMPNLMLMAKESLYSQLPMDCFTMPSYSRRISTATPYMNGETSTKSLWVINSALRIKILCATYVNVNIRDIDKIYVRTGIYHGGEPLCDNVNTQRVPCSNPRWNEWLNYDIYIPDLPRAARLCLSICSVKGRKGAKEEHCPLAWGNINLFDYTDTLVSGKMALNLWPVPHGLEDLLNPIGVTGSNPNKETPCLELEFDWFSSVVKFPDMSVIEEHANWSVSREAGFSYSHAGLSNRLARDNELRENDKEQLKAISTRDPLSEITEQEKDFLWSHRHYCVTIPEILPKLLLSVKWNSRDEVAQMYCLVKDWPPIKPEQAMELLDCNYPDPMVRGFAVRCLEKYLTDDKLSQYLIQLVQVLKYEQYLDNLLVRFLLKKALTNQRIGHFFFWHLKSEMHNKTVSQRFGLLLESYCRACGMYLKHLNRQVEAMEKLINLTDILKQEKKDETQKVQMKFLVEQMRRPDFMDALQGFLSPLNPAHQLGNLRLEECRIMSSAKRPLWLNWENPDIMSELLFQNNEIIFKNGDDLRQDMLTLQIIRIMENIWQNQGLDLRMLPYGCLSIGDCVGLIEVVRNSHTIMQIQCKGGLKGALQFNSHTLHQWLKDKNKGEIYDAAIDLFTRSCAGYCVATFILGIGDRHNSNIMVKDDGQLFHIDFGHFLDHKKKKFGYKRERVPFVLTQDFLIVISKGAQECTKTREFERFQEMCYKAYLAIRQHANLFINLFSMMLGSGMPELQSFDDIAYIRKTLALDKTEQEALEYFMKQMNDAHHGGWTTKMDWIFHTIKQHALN
Chain of ERBB2;PIK3CA (human), P42336 [Assessment of Cell Proliferation in MCF7.1 Cells Expressed by ERBB2/ PI3K(E545K)] (P42336 whole entry, looked up, stated change not applied): as the sequence (P42336 whole entry, looked up) above

As usually defined, the IC50 is the concentration at which inhibition is half-maximal. The low end stands for greater potency, the high end for weaker potency. Take `C=C=CCCCCOc1cc2c(Nc3ccc(F)c(Cl)c3)ncnc2cc1OC`: the IC50 in assay [1] turned out to be 65.5 nM.
In assay [2], `NC(=O)Cc1cccc(-n2nc(-c3cccc(F)c3)cc2NC(=O)Nc2cccc(Cl)c2Cl)c1` came in with an IC50 of 21 nM.
Consider `NC(=O)Cc1cccc(-n2nc(-c3ccccc3)cc2NC(=O)Nc2cccc(Cl)c2Cl)c1`, for which, in assay [2], the IC50 is 12 nM.
In the case of `COc1cccc(Nc2nc(N)nc3[nH]c4cccc(Cl)c4c23)c1`, the IC50 in assay [3] stood at 167000 nM.
A word on the EC50: it is the midpoint of the concentration-response curve. High values mean lower potency in that assay, low ones higher potency in that assay. In assay [4], `CC(C)(N)c1cc2nc(-c3cnc(N)nc3)nc(N3CCOCC3)c2s1` showed an EC50 of 290 nM.
As for `CC(C)(C)C(=O)Nc1nc(Nc2ccc(Cl)cc2)c2c(n1)[nH]c1cccc(Cl)c12`, in assay [3], the IC50 was 55000 nM.
`COCCn1c(Cc2nc(N3CCOCC3)cc(=O)[nH]2)nc2ccccc21`: the IC50 in [5] was 205 nM; in assay [6], 270 nM; in assay [7] it was over 10000 nM; in assay [8] it was over 10000 nM.
As to `CN1CC2CN(c3cnc4ncc(-c5ccc6oc(N)nc6c5)cc4n3)CC2C1` (stereo not drawn), the values for the concentration for half-maximal inhibition (IC50) in assay [9], in [5] and in assay [6] were under 100 nM, 100 to 1000 nM and 100 to 1000 nM, respectively.
For `C[C@H](Nc1nc(N)ncc1Cl)c1cc2cccc(Cl)c2nc1-c1ccccn1`, the IC50 in assay [10] was 105 nM; in [11] it was 106 nM.
Regarding `CC(C)c1ccc(Nc2nc(NC(=O)C(C)(C)C)nc3[nH]c4cccc(Cl)c4c23)cc1`, the IC50 in [3] is over 250000 nM.
In assay [1], `C=C=CCOc1cc2c(Nc3cccc(Cl)c3)ncnc2cc1OC` yielded an IC50 of 16.9 nM.
For the molecule `Cc1ccnc(NS(=O)(=O)c2ccc(Nc3nc(C)c4c(=O)[nH]c(Nc5ccc(S(=O)(=O)O)cc5)nc4n3)cc2)n1`, the results for the 50% inhibitory concentration (IC50) in assay [12] and in [13] were over 10000 nM and 8100 nM, respectively.
Taken in the same sequence, the figures for `Cc1ccnc(NS(=O)(=O)c2ccc(Nc3nc(C)c4c(=O)[nH]c(Nc5cccc(Cl)c5)nc4n3)cc2)n1` were 50 nM and over 10000 nM.
Regarding `Cc1ccnc(NS(=O)(=O)c2ccc(Nc3nc(-c4ccc(O)cc4O)c4c(=O)[nH]c(SCc5ccccc5)nc4n3)cc2)n1`, the IC50 in assay [13] was found to be 5500 nM.
The molecule `C=C=CCOc1cc2c(Nc3ccc(F)c(Cl)c3)ncnc2cc1OC` showed an IC50 in assay [1] of 23.8 nM.
With `NC(=O)Cc1cccc(-n2nc(-c3cccc(Cl)c3)cc2NC(=O)Nc2cccc(Cl)c2Cl)c1`, the IC50 in [2] was 58 nM.
Molecule `CN(Cc1cc2nc(-c3cnc(N)nc3)nc(N3CCOCC3)c2s1)S(C)(=O)=O` gave an EC50 in [4] of 170 nM.
`Cc1ccsc1-c1cc(NC(=O)Nc2cccc(Cl)c2Cl)n(-c2cccc(CC(N)=O)c2)n1` gave an IC50 in assay [2] of 86 nM. This counts as double-digit nanomolar.
As to `CC(Nc1ccc(F)cc1)c1cc(C(=O)N(C)C)cc2c(=O)cc(N3CCO[C@@H](C)C3)oc12` (stereo partly drawn), in assay [5], the IC50 stood at 64 nM. That is a double-digit nanomolar value.
As for `CS(=O)(=O)c1cccc(-c2cc3nc(-c4cnc(N)nc4)nc(N4CCOCC4)c3s2)c1`, in [4], the EC50 is 40 nM and 33 nM.
Turning to `C=C=CCCCOc1cc2c(Nc3cccc(Cl)c3)ncnc2cc1OC`, in assay [1], the IC50 was determined as 28.5 nM.
Molecule `Cc1ccnc(NS(=O)(=O)c2ccc(Nc3nc(C)c4c(=O)[nH]c(SCc5ccccc5)nc4n3)cc2)n1` had an IC50 in assay [13] of 7800 nM.
As to `Cc1cccc2cc(CNc3ccnc(C(N)=O)c3)c(-c3ccccc3Cl)nc12`, the half-maximal inhibitory concentration (IC50) in [11] worked out at 15300 nM.
`Cc1ccnc(NS(=O)(=O)c2ccc(Nc3nc(C)c4c(=O)[nH]c(NCc5ccccc5)nc4n3)cc2)n1` displayed a 50% inhibitory concentration (IC50) in assay [13] of 6600 nM.
Consider `CC(C)(C)C(=O)Nc1nc(Nc2cccc(F)c2)c2c(n1)[nH]c1cccc(Cl)c12`, for which, in assay [3], the 50% inhibitory concentration (IC50) is over 250000 nM.
For the molecule `Cc1c(Cn2ccn3c(=O)cc(C4C=COCC4)nc23)cccc1C(F)(F)F` (stereo not drawn), the values for the concentration for half-maximal inhibition (IC50) in assay [5] and in assay [6] were 13 nM and 40 nM, respectively.
As for `Nc1ncc(-c2cnc3ccc(-c4ccc(C(=O)N5CCN(Cc6ccccn6)CC5)cc4)nn23)cc1C(F)(F)F`, the 50% inhibitory concentration (IC50) in assay [9] turned out to be 16 nM; in [5], 979 nM; in [6], 93 nM; in assay [14], 1270 nM.
For `NC(=O)Cc1cccc(-n2nc(-c3ccccc3F)cc2NC(=O)Nc2cccc(Cl)c2Cl)c1`, in assay [2], the IC50 is 10 nM.
For the molecule `CC(=O)N(C)Cc1cc2nc(-c3cnc(N)nc3)nc(N3CCOCC3)c2s1`, in [4], the EC50 is 190 nM and 187 nM.
The same measure, in the same setting: the value for `Nc1ncc(-c2nc(N3CCOCC3)c3sccc3n2)cn1` was 430 nM.
On to `Nc1nc(Nc2ccc(Cl)cc2)c2c(n1)[nH]c1cccc(Cl)c12`, for which the IC50 in [3] worked out at 44100 nM. This lies in the double-digit micromolar range.
